Converted amounts (≈) assume the structure as drawn. “And” between values parts separate entries of the source, which are not always exact repeats. Identical values can stand only once.
Columns and labels:
MDR1 (P-gp) = assay: MDCKII-MDR1 cell-based permeability assay; assay type: in vitro ADME; conditions: dog, MDCK-MDR1, pH 7.4
Protocol: (§1) page 30: ADME Methods Aqueous solubility assay: Solubility assays were conducted using a Biomek FX lab automation workstation (Beckman Coulter, Inc., Fullerton, CA) and μSOL Evolution software (pION Inc., Woburn, MA). In a 96-well microplate (Cat. No: 3363, Corning Incorporated, Salt Lake, UT), 10 μL of a 10 mM test compound stock in DMSO was added to 190 μL 1-propanol (Thermo Scientific, spectroscopy, Cat. No: 434360010, Fair Lawn, NJ) to create a reference stock plate. From this reference stock plate, 5 μL solutions were mixed with 70 μL 1-propanol and 75 μL Dulbecco's Phosphate Buffered Saline (DPBS, 1X, GibcoTM, Cat. No: 14190-144, Thermo Fisher Scientifics, Waltham, MA) to generate the reference plate (high sensitivity UV plate, Cat. No: 110286, pION Inc., Woburn, MA). In a 96-well storage plate (Cat. No: 201276-100, Agilent, Santa Clara, CA), 6 μL of a 10 mM test compound stock was added to 600 μL buffer, mixed, sealed, and incubated at room temperature for 18 hours. Following incubation, the suspension was filtered through a 96-well filter plate (PVDF, 0.2 μM, Cat. No: 110037, pION Inc., Woburn, MA). The filtrate (75 μL) was combined with 75 μL 1-propanol to create the sample plate. UV spectra of the reference and sample plates were then read, and calculations based on the area under the curve (AUC) of the UV spectra were performed using μSOL Evolution software. All compounds were tested in triplicate wells. MDCKII-MDR1 cell-based permeability assay: High-throughput […]1 permeability assay was performed in the Transwell® 0.4 μm polycarbonate membrane 96-well system with modified methods1,2, […]1 cells were maintained at 37 °C in a humidified incubator with an atmosphere of 5% CO2. The cells were cultured in 75 cm2 flasks with Eagle's Minimum Essential Medium (EMEM) containing 10% fetal bovine serum (FBS), 1% non-essential amino acids (NEAA), 100 units/mL of penicillin, and 100 μg/mL of streptomycin. The […]1 cells were seeded onto inserts at a density of 1×10^4 cells/insert separately. The medium in the wells was changed every other day, and the trans epithelial electrical resistance (TEER) value was measured page 31: using a REMS Autosampler (World Precision Instruments, Sarasota, […]1 cells were grown for 5 days to reach a consistent confluency level monitored by epithelial voltohmmeter to confirm the intactness of the confluent polarized monolayer. For transport experiments, each cultured monolayer on the 96-well plate was washed twice with a transport buffer (HBSS/25 mM […] The cell-based permeability assay was initiated by the addition of each compound solution (10 μmol/L) into inserts (apical side, A) or receivers (basolateral side, B). After incubated […] (if basal to apical permeability), and concentrations were assessed by UPLC/MS (Waters; Milford, MA). All compounds were tested in triplicates. The A→B (or B→A) apparent permeability coefficients (Papp) of each compound were calculated using the equation (3): […], where dQ/dt equals the flux of a drug across the monolayer, the parameters of A equals the surface area of total insert well, and C0 is the initial concentration of substrate in the donor compartment. The efflux ratio was determined by dividing the Papp in the B-A direction by the Papp in the A-B direction. […] NADPH regenerating agent solutions A and B (Corning GentestTM, Cat. No: 451220) were purchased from Discovery Labware (Woburn, MA). Mouse liver microsomes (CD-1, pooled, GibcoTM, Cat. No: MSMCPL) were obtained from Thermo Fisher Scientific (Fredrick, MD). Pooled human liver microsomes (mixed gender, Cat. No: E0630) were purchased from XenoTech (Lenexa, KS). Stock solutions of test compounds were prepared at 10 mM in DMSO. Sample preparation for microsomal stability was modified from Di's publications3,4. […] and 4 hours) by Labcyte Echo 650 acoustic dispenser (Beckman Coulter Life Sciences, Indianapolis, IN). All compounds were tested in triplicate per time point. […]

Aqueous solubility assay = assay type: physicochemical; conditions: DPBS buffer
Protocol: page 30: ADME Methods Aqueous solubility assay: Solubility assays were conducted using a Biomek FX lab automation workstation (Beckman Coulter, Inc., Fullerton, CA) and μSOL Evolution software (pION Inc., Woburn, MA). In a 96-well microplate (Cat. No: 3363, Corning Incorporated, Salt Lake, UT), 10 μL of a 10 mM test compound stock in DMSO was added to 190 μL 1-propanol (Thermo Scientific, spectroscopy, Cat. No: 434360010, Fair Lawn, NJ) to create a reference stock plate. From this reference stock plate, 5 μL solutions were mixed with 70 μL 1-propanol and 75 μL Dulbecco's Phosphate Buffered Saline (DPBS, 1X, GibcoTM, Cat. No: 14190-144, Thermo Fisher Scientifics, Waltham, MA) to generate the reference plate (high sensitivity UV plate, Cat. No: 110286, pION Inc., Woburn, MA). In a 96-well storage plate (Cat. No: 201276-100, Agilent, Santa Clara, CA), 6 μL of a 10 mM test compound stock was added to 600 μL buffer, mixed, sealed, and incubated at room temperature for 18 hours. […] UV spectra of the reference and sample plates were then read, and calculations based on the area under the curve (AUC) of the UV spectra were performed using μSOL Evolution software. […] The medium in the wells was changed every other day, and the trans epithelial electrical resistance (TEER) value was measured

MDCKII-MDR1 cells = assay: MDCKII-MDR1 cell-based permeability assay; assay type: in vitro ADME
Protocol: as §1

SMILES | Papp A→B at 1 h, 10 μmol/L (MDR1 (P-gp); apical to basolateral, read-out: MDCK-MDR1 AB) | Papp B→A at 1 h, 10 μmol/L (MDR1 (P-gp); basolateral to apical, read-out: MDCK-MDR1 BA) | solubility at 18 h (Aqueous solubility assay) | Papp (*10^6 cm/s), A2B, single replicate (MDCKII-MDR1 cells; A2B) | Papp (nm/s), A2B, single replicate (MDCKII-MDR1 cells; A2B) | AVG Papp A 2 B (MDCKII-MDR1 cells; A2B, average of 3) | Papp (*10^6 cm/s), B2A, single replicate (MDCKII-MDR1 cells; B2A) | Papp (nm/s), B2A, single replicate (MDCKII-MDR1 cells; B2A) | Efflux Ratio (MDCKII-MDR1 cells; B2A / A2B) | AVG Papp B 2 A (MDCKII-MDR1 cells; B2A, average of 3)
O=C1CCC(N2Cc3cc(Nc4noc5ccccc45)ccc3C2=O)C(=O)N1 (stereo not shown) [SJ3149] | 27.7 ×10⁻⁶ cm/s | 36.5 ×10⁻⁶ cm/s | 36 µM (≈ 13.5 µg/mL) |  |  |  |  |  |  | 
O=C1CCC(N2Cc3cc(Nc4noc5ccccc45)ccc3C2=O)C(=O)N1 (stereo not shown) [SJ001043149-1] |  |  |  | 35.9761 *10^6 cm/s and 11.2244 *10^6 cm/s and 35.8135 *10^6 cm/s | 359.761 nm/s and 112.244 nm/s and 358.135 nm/s | 27.6713 ×10⁻⁶ cm/s | 44.7992 *10^6 cm/s and 31.6544 *10^6 cm/s and 32.9997 *10^6 cm/s | 447.992 nm/s and 316.544 nm/s and 329.997 nm/s | 1.318 | 36.4845 ×10⁻⁶ cm/s

Reference: publication PMC10791743, “Selective CK1α degraders exert antiproliferative activity against a broad range of human cancer cell lines” (Nature Communications, 2024)
